Experimental findings from patent US20220184008A1, “MODULATORS OF INTRACELLULAR CHLORIDE CONCENTRATION” (FONDAZIONE ISTITUTO ITALIANO DI TECNOLOGIA, priority 2019, published 2022) are described below.

What is called solubility is how much of the substance goes into solution per volume.

A value given as a limit tells only on which side of the number the result lay.

Data set [1] in a line: Solubility in aqueous buffer. It is filed as physicochemical. Conditions: PBS, pH 7.4, aqueous buffer. How it is done:
(§1) FIG. 3: Assessment of drug-likeness of a selected compound, compound 3.17. a) Chemicophysical properties of bumetanide and compound 3.17 by LC-MS analysis. b) Comparison between urinary volume of WT mice (C57Bl/6N) two hours after treatment with bumetanide (0.2 mg/kg) and compound 3.17 (0.2 mg/kg). c) Assessment of urinary volume of Ts65Dn mouse model of Down syndrome and WT littermates two hours after treatment with compound 3.17 (0.2 mg/kg). Number in parenthesis: number of analyzed animals. Data represents mean±sem, and they are presented as % of the respective vehicle.
(§2) The selected NKCC1 inhibitor compound 3.17 has been evaluated for solubility in aqueous buffers, and stability in plasma and phase I metabolism in vitro (FIG. 3a).

A short description of data set [2]: Stability in plasma. The settings on record: resistance to hydrolysis, read-out: t½ in plasma. It is filed as in vitro ADME. How it is done: as §1, §2
The nature of data set [3]: Phase I metabolism in liver microsomes. The settings on record: read-out: t½ in liver microsomes. It is filed as in vitro ADME. How it is done: as §1, §2
Background: Microsomes from liver hold many membrane-bound enzymes, among them those of drug oxidation.

Compound `CN(C)S(=O)(=O)c1cc(C(=O)O)ccc1NCCCCCCCC(F)(F)F` [Compound 3.17, 3-(dimethylsulfamoyl)-4-(8,8,8-trifluorooctylamino) benzoic acid] showed a solubility in data set [1] above 250 µM. The half-life was above 2 h in data set [2] and above 1 h in data set [3].
